Experiment in all cases: relative viability (nuclei count vs DMSO), 5 days (fraction); higher = more cells survive
Compound in experiment [1]: CCn1c(-c2nonc2N)nc2cnc(Oc3cccc(NC(=O)c4ccc(OCCN5CCOCC5)cc4)c3)cc21 + Cc1nc(Nc2ncc(C(=O)Nc3c(C)cccc3Cl)s2)cc(N2CCN(CCO)CC2)n1 [Dasatinib] (partner 0.075 µM)
The gist of the method: (§1)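 Dosing by pin tool came one day after lung cancer cell lines were seeded in 1536-well plates, using either one drug or a fixed anchor-drug dose plus five library-drug doses (not always all listed) in √10 steps. After 5 days, nuclei were counted on 4× images. Relative viability is treated-well nuclei count divided by vehicle-well nuclei count, and values are medians of duplicate plates.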

Compound in experiment [2]: CCn1c(-c2nonc2N)nc2cnc(Oc3cccc(NC(=O)c4ccc(OCCN5CCOCC5)cc4)c3)cc21 + N=C(N)NC(=N)NCCc1ccccc1 [Phenformin] (partner 250 µM)
The gist of the method: as §1

Compound in experiment [3]: CCn1c(-c2nonc2N)nc2cnc(Oc3cccc(NC(=O)c4ccc(OCCN5CCOCC5)cc4)c3)cc21 + NC(=O)Nc1cc(-c2cccc(F)c2)sc1C(=O)N[C@H]1CCCNC1 [AZD7762] (partner 0.2 µM)
The gist of the method: as §1

Compound in experiment [4]: N=C1NC(=O)/C(=C/c2ccc(O)cc2)S1 [Mirin] + Nc1ncn([C@H]2C[C@H](O)[C@@H](CO)O2)c(=O)n1 [Decitabine] (partner 2 µM)
The gist of the method: as §1

Take EKVX: the relative viability turned out to be 0.565 in experiment [1] (first compound 0.04 µM); 0.277 in experiment [1] (first compound 0.1265 µM); 0.434 in experiment [1] (first compound 0.4 µM); 0.457 in experiment [1] (first compound 1.265 µM); 0.427 in experiment [1] (first compound 4 µM); 0.275 in experiment [2] (first compound 0.04 µM). The relative viability in experiment [2] (first compound 0.1265 µM) was found to be 0.242; in experiment [2] (first compound 0.4 µM), 0.136; in experiment [2] (first compound 1.265 µM), 0.227; in experiment [2] (first compound 4 µM), 0.236; in experiment [3] (first compound 0.04 µM) it was 0.927; in experiment [3] (first compound 0.1265 µM), 0.718. Moreover, the relative viability turned out to be 0.478 in experiment [3] (first compound 0.4 µM); 0.476 in experiment [3] (first compound 1.265 µM); 0.621 in experiment [3] (first compound 4 µM); 0.317 in experiment [4] (first compound 0.25 µM); 0.338 in experiment [4] (first compound 0.7906 µM); 0.395 in experiment [4] (first compound 2.5 µM). Besides, the relative viability in experiment [4] (first compound 7.906 µM) was found to be 0.361; in experiment [4] (first compound 25 µM) it was 0.26.
Take EMC-BAC-2: the relative viability in experiment [1] (first compound 0.04 µM) was 0.305; in experiment [1] (first compound 0.1265 µM), 0.244; in experiment [1] (first compound 0.4 µM), 0.134; in experiment [1] (first compound 1.265 µM) it was 0.161; in experiment [1] (first compound 4 µM) it was 0.154; in experiment [2] (first compound 0.04 µM), 0.502. The relative viability in experiment [2] (first compound 0.1265 µM) stood at 0.387; in experiment [2] (first compound 0.4 µM) it was 0.259; in experiment [2] (first compound 1.265 µM) it was 0.176; in experiment [2] (first compound 4 µM), 0.178; in experiment [3] (first compound 0.04 µM), 1.17; in experiment [3] (first compound 0.1265 µM) it was 1.01. The relative viability in experiment [3] (first compound 0.4 µM) was found to be 0.504; in experiment [3] (first compound 1.265 µM), 0.476; in experiment [3] (first compound 4 µM), 0.32; in experiment [4] (first compound 0.25 µM), 0.997; in experiment [4] (first compound 0.7906 µM), 1.02; in experiment [4] (first compound 2.5 µM), 0.977. The relative viability was found to be 0.949 in experiment [4] (first compound 7.906 µM) and 1.09 in experiment [4] (first compound 25 µM).
In the case of EPLC-272H, the relative viability worked out at 0.513 in experiment [1] (first compound 0.04 µM); 0.326 in experiment [1] (first compound 0.1265 µM); 0.159 in experiment [1] (first compound 0.4 µM); 0.263 in experiment [1] (first compound 1.265 µM); 0.227 in experiment [1] (first compound 4 µM); 0.369 in experiment [2] (first compound 0.04 µM). In addition, the relative viability in experiment [2] (first compound 0.1265 µM) was 0.306; in experiment [2] (first compound 0.4 µM) it was 0.216; in experiment [2] (first compound 1.265 µM) it was 0.245; in experiment [2] (first compound 4 µM), 0.229; in experiment [3] (first compound 0.04 µM) it was 0.211; in experiment [3] (first compound 0.1265 µM) it was 0.199. The relative viability is 0.153 in experiment [3] (first compound 0.4 µM); 0.128 in experiment [3] (first compound 1.265 µM); 0.0806 in experiment [3] (first compound 4 µM); 0.33 in experiment [4] (first compound 0.25 µM); 0.39 in experiment [4] (first compound 2.5 µM); 0.34 in experiment [4] (first compound 7.906 µM). Further, the relative viability in experiment [4] (first compound 25 µM) stood at 0.28.
Turning to H3255, the relative viability in experiment [1] (first compound 0.04 µM) came to 0.375; in experiment [1] (first compound 0.1265 µM) it was 0.367; in experiment [1] (first compound 0.4 µM), 0.331; in experiment [1] (first compound 1.265 µM), 0.341; in experiment [1] (first compound 4 µM), 0.291; in experiment [2] (first compound 0.04 µM) it was 0.455. The relative viability in experiment [2] (first compound 0.1265 µM) came out at 0.35; in experiment [2] (first compound 0.4 µM) it was 0.332; in experiment [2] (first compound 1.265 µM), 0.322; in experiment [2] (first compound 4 µM) it was 0.358; in experiment [3] (first compound 0.04 µM), 0.967; in experiment [3] (first compound 0.1265 µM) it was 0.737. Besides, the relative viability came out at 0.742 in experiment [3] (first compound 0.4 µM); 0.383 in experiment [3] (first compound 1.265 µM); 0.481 in experiment [3] (first compound 4 µM); 0.595 in experiment [4] (first compound 0.25 µM); 0.577 in experiment [4] (first compound 0.7906 µM); 0.649 in experiment [4] (first compound 2.5 µM). In addition, the relative viability in experiment [4] (first compound 7.906 µM) stood at 0.467; in experiment [4] (first compound 25 µM), 0.758.

The values are drawn from the supplement of paper PMC10307832.
